Measurements reported in article PMC4696656, “Insights into the Mechanism of Action of Bactericidal Lipophosphonoxins” (PLoS ONE, 2015).
≈ marks a conversion by molar mass, not a printed value. Where two headings read alike, the source gives them in different places.

Experiments:
Bacillus subtilis = assay: MIC, standard microdilution method
B. subtilis 168 = assay: Selection for resistant strains, stepwise two-fold increased concentration; type: cell-based, Bacillus subtilis; conditions: 24 h cultures, two-fold increased concentration each transfer; rifampicin from 0.01 mg/L, DR5026 from 0.5 mg/L
Protocol: A) B. subtilis. […] Then, the growth of the culture was evaluated by OD600nm and an aliquot of the culture was transferred to a new tube with fresh medium and a two-fold increased concentration of the active compound. This template was followed until no growth was detected for DR5026 or until B. subtilis grew at 5 mg/L of rifampicin.

[1] = comparable conditions, 1 M salt solution, cited from earlier work
[2] = test system: Mouse macrophages J774A.1; assay: Membrane permeabilization assay (propidium iodide uptake); type: cell-based; conditions: LPPOs 10 mg/L, melittin 10 μM
Protocol: Mouse macrophages J774A.1 (ATCC, number TIB-67) were cultured at 37°C in a humidified air/CO2 (19:1) atmosphere in RPMI medium supplemented with 10% (v/v) heat-inactivated fetal bovine serum, penicillin (100 IU/ml), streptomycin (100 mg/L), and amphotericin B (250 μg/L). For fluorescence measurements, cells were mechanically harvested, seeded on glass coverslips in 6-well plates, and grown to 30% confluence (about 2x10^5 cells). Cells grown on coverslips were washed in modified HBSS solution (140 mM NaCl, 5 mM KCl, 2 mM CaCl2, 3 mM MgCl2, 10 mM HEPES-Na, 50 mM glucose, pH 7.4) and promptly mounted into custom-made polypropylene holder which was placed horizontally into a quartz cuvette filled with HBSS containing 10 μM PI. The uptake of PI was observed as fluorescence increase using identical setting as with bacterial cells (see above). The observed area of the coverslip was about 10 mm^2, corresponding to approximately 10^4 cells.

For CO[C@H]1/C=C/O[C@@]2(C)Oc3c(C)c(O)c4c(O)c(c(/C=N/N5CCN(C)CC5)c(O)c4c3C2=O)NC(=O)/C(C)=C\C=C\[C@H](C)[C@H](O)[C@@H](C)[C@@H](O)[C@@H](C)[C@H](OC(C)=O)[C@@H]1C [rifampicin, reference compound], the “MIC against wt B. subtilis” value (Bacillus subtilis; B. subtilis 168, as stated for the resistance selection experiment) was 0.06 µg/mL (≈ 0.0729 µM), the MIC (Bacillus subtilis; Bacillus subtilis, read-out: MIC against wt B. subtilis, B. subtilis 168, as stated for the resistance selection experiment) was about 0.06 µg/mL (≈ 0.0729 µM) and the development of resistance (B. subtilis 168) was “able to obtain cells growing in the presence of 5 mg/L of rifampicin”.

In the case of alamethicin, the channel conductance ([1]; no reference given) is listed as “ca. 600 pS”.

For gramicidin A, the channel conductance [1] is listed as “ca. 20 pS”.

With melittin the “effect on cytoplasmic membrane permeability (PI uptake)” value [2] was “did so”.
